Literature values in patent publication US4996197A, “Pharmaceutical and/or cosmetic composition for local use containing Rhamsan gum” (Laboratoires Merck Sharp & Dohme-Chibret, priority 1987, dated 1991).

Details: with polyvinyl alcohol; Maichuk, Am. J. Ophthal, 74: 694, 1972

Compound | pharmacological response to medicinal products
Nc1ccc(S(=O)(=O)[N-]c2cccnn2)cc1.[Na+] [sulphapyridazine sodium] | enhances the pharmacological response
erythrocin propionate | enhances the pharmacological response
